Read-outs that look alike come from different tables or passages of the source.
How the values were obtained:
[1] = molecular target: EGFR (d746-750 T790M C797S) (Homo sapiens (Human), UniProt P00533, C797S/DEL746-750/T790M); assay: Biochemical EGFR inhibition assay (TR-FRET, poly-GT substrate), EGFR d746-750 T790M C797S
Protocol: (§1) Biochemical EGFR Inhibition Assays
(§2) Initially, the inhibitory effect of compounds according to the invention is measured in biochemical assays which measure the phosphorylation activity of EGFR enzyme forms on poly-GT substrate in the presence of different concentrations of ATP (5 μM and 100 μM final assay concentration).
(§3) The following enzyme forms of EGFR are representative examples that can be used in these assays at the given concentrations:
(§4) For the chosen highest assay concentration of 100 μM, 150 nL of compound solution is transferred from a 10 mM DMSO compound stock solution. A series of eleven fivefold dilutions per compound is transferred to the assay plate, compound dilutions are tested in duplicates. DMSO is added as backfill to a total volume of 150 nL. The assay runs on a fully automated robotic system.
(§5) These biochemical EGFR enzyme form compound dose-response assays quantify the kinase activity via phosphorylation of a tagged poly-GT substrate. The results of the assay are provided as IC50 values.

[2] = molecular target: EGFR del19 T790M C797S protein in Ba/F3 cells (Homo sapiens, UniProt P00533, C797S/DEL746-750/T790M); assay: pEGFR assay (AlphaScreen Surefire, EGFR Tyr1068 phosphorylation); type: cell-based
Sequence of EGFR del19 T790M C797S protein in Ba/F3 cells (P00533 with tags, fused parts or gaps C797S/DEL746-750/T790M limits assumed): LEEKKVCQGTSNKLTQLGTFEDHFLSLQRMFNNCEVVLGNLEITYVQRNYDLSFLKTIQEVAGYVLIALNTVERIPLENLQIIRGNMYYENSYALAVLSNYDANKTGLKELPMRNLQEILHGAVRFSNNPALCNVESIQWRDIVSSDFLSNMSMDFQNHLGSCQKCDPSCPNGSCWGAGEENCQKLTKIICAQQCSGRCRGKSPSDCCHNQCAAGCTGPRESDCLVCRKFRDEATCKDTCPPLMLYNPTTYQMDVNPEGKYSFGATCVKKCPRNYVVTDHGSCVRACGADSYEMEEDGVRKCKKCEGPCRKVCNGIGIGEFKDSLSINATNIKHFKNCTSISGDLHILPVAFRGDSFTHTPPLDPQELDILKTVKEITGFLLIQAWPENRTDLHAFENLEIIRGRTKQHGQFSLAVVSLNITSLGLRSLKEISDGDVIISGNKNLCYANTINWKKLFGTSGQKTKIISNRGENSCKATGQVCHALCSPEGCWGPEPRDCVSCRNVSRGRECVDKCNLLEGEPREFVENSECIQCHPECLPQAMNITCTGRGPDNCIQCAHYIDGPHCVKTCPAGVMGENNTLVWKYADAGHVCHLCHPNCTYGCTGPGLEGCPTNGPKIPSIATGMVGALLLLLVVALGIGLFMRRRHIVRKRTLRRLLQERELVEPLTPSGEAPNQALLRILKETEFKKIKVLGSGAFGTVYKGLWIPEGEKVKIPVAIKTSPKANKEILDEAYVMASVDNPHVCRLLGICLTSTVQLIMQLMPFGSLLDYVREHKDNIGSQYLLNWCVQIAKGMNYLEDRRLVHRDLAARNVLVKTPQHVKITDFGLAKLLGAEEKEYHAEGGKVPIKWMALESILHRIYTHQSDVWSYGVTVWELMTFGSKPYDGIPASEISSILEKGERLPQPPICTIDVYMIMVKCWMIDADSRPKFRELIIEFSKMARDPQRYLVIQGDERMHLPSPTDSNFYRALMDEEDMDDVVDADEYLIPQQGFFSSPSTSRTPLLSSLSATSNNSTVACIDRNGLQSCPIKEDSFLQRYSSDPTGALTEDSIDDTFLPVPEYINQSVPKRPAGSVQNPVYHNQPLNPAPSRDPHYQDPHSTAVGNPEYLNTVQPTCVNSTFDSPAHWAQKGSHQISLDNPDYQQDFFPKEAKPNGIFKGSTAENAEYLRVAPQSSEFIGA
Method in brief: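 Transduced Ba/F3 cells, puromycin-selected and grown IL-3 independent, were treated with compound at 60.000 cells/well for 4 h at 37° C. Lysis followed for 20 min at room temperature, and Tyr1068 phospho-EGFR in lysate was detected after 2 h dark incubation. Results are IC50 values.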

[3] = molecular target: EGFR (mutated) 695-1022, T790M, C797S, L858R (Homo sapiens (Human), UniProt P00533, C797S/L858R/T790M); assay: Biochemical EGFR inhibition assay (TR-FRET, poly-GT substrate), EGFR T790M C797S L858R
Sequence of EGFR (mutated) 695-1022, T790M, C797S, L858R (P00533 695-1022 T790M/C797S/L858R): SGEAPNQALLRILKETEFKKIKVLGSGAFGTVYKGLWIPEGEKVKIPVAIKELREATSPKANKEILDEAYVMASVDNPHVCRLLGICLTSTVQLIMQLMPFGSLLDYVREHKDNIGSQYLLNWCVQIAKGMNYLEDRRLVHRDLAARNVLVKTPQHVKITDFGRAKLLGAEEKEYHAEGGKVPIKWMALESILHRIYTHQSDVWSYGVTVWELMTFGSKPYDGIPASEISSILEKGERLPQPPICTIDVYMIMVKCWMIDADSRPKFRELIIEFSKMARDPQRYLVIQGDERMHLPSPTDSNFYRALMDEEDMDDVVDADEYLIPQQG
Protocol: as §1, §2, §3, §4, §5

EGFR wt = EGFR wt (Homo sapiens (Human), UniProt P00533); assay: Biochemical EGFR inhibition assay (TR-FRET, poly-GT substrate), EGFR wt
Sequence of EGFR wt (P00533 25-1210): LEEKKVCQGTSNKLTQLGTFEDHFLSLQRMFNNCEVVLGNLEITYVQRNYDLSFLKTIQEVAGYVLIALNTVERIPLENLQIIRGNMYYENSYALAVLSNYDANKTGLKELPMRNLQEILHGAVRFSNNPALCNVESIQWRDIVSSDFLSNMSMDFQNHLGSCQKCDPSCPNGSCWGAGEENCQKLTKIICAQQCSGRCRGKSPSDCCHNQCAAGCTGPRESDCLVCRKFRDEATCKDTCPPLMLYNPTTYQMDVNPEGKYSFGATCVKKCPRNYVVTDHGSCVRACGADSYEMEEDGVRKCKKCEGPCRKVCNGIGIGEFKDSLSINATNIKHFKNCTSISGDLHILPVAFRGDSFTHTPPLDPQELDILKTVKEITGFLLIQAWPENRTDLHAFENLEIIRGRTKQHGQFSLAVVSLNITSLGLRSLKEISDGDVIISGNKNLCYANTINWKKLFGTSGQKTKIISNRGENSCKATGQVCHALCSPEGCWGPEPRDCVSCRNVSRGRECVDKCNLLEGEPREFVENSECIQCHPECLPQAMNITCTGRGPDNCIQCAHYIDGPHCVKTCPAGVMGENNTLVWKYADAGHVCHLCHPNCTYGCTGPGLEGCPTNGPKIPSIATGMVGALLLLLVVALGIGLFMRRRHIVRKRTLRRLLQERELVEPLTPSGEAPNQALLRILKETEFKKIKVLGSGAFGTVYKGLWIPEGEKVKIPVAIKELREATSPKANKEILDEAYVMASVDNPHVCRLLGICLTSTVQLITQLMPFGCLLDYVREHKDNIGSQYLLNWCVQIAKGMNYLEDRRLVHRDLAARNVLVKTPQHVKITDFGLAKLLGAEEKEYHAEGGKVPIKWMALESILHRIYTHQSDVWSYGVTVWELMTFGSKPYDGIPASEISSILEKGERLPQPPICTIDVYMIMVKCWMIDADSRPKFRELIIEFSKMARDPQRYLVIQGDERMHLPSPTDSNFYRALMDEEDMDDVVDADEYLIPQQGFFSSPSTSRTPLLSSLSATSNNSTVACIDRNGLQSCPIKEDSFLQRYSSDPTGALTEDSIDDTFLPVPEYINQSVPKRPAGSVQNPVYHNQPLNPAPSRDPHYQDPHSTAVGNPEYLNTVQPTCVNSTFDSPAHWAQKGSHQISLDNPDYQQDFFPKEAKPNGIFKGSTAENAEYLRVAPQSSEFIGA
Protocol: as §1, §2, §3, §4, §5

[4] = read-out: LR_TM_CS (100 μM ATP) IC50, 100 μM ATP
[5] = read-out: wt (100 μM ATP) IC50, 100 μM ATP
[6] = read-out: LR_TM_CS (5 μM ATP) IC50, 5 μM ATP
[7] = read-out: wt (5 μM ATP) IC50, 5 μM ATP

Sequence of EGFR (d746-750 T790M C797S) (P00533 other isoform, or with tags, fused parts or gaps T790M/C797S/del 1-694/del 746-750 limits assumed): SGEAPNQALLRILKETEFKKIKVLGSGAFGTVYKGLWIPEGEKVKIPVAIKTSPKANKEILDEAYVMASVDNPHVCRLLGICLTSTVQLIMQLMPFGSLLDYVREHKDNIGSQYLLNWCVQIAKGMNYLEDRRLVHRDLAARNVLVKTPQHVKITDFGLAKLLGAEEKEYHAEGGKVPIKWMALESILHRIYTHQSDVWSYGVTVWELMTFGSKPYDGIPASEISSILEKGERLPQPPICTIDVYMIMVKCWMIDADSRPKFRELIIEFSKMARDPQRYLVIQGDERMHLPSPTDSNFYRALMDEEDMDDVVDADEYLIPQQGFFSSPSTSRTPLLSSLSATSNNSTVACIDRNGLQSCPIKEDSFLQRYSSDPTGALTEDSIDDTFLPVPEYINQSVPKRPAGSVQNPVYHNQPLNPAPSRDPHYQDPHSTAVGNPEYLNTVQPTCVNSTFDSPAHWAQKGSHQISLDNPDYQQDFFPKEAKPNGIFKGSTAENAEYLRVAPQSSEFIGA

| IC50 ([1]; 100 μM ATP) [nM] | IC50 [2] [nM] | IC50 [3, 4] [nM] | IC50 (EGFR wt; [5]) [nM] | IC50 [3, 6] [nM] | IC50 (EGFR wt; [7]) [nM] | IC50 ([1]; 5 μM ATP) [nM] | SMILES |
| --- | --- | --- | --- | --- | --- | --- | --- |
| 71.7 | 43 | – | – | – | – | – | Cn1cc(-c2cc(C(=O)/N=c3\[nH]c4ccccc4n3CC(C)(C)O)ccn2)cn1 [I-001] |
| 4.6 | 9 | 67.4 | 2510 | – | – | – | O=C(/N=c1\[nH]c2ccccc2n1C1CCCC1)c1ccnc(-c2cccnc2)c1 [I-002] |
| 9.9 | 29 | 61.7 | 4080 | – | – | – | Cn1cc(-c2cc(C(=O)/N=c3\[nH]c4ccccc4n3C3CCCC3)ccn2)cn1 [I-003] |
| 4.7 | 13 | 38.5 | 1950 | – | – | – | Cc1c(-c2cc(C(=O)/N=c3\[nH]c4ccccc4n3C3CCCC3)ccn2)cnn1C [I-004] |
| 14.2 | 11 | 105 | 236 | – | – | – | Cc1nn(C)cc1-c1cc(C(=O)/N=c2\[nH]c3ccccc3n2C2CCCC2)ccn1 [I-005] |
| 5 | 6 | 39.6 | > 4000 | 1.5 | 185 | – | CC(=O)N1CCC(c2ccc3c(c2)[nH]/c(=N\C(=O)c2ccnc(-c4cnn(C)c4)c2)n3C2CCCC2)CC1 [I-008] |
| 49 | 30 | 184 | 12400 | – | – | – | Cn1cc(-c2cc(C(=O)/N=c3\[nH]c4ccccc4n3[C@H]3CC[C@@H](O)C3)ccn2)cn1 [I-009] |
| 2.9 | 20 | 17.4 | 5110 | – | – | – | CN1CCC(c2ccc3c(c2)[nH]/c(=N\C(=O)c2ccnc(-c4cnn(C)c4)c2)n3C2CCCC2)CC1 [I-010] |
| 2.5 | 77 | 27.7 | 7060 | – | – | – | CN1CCC(c2ccc3c(c2)[nH]/c(=N\C(=O)c2ccnc(-c4cccnc4)c2)n3C2CCCC2)CC1 [I-011] |
| 10.5 | 25 | 64.6 | > 100000 | 1.9 | 403 | – | CC(C)Cn1/c(=N/C(=O)c2ccnc(-c3cnn(C)c3)c2)[nH]c2ccccc21 [I-012] |
| 18.4 | 13 | 76.5 | 3770 | – | – | – | Cn1cc(-c2cc(C(=O)/N=c3\[nH]c4ccccc4n3[C@H]3CC[C@H](O)C3)ccn2)cn1 [I-013] |
| 48.8 | 94 | 146 | > 100000 | – | – | – | CCCn1/c(=N/C(=O)c2ccnc(-c3cnn(C)c3)c2)[nH]c2ccccc21 [I-014] |
| 14.2 | 7 | 111 | 9960 | 3.9 | 1880 | – | Cc1c(-c2cc(C(=O)/N=c3\[nH]c4ccccc4n3CC(C)(C)O)ccn2)cnn1C [I-017] |
| 26.3 | 37 | 102 | 4370 | – | – | – | Cn1cc(-c2cc(C(=O)/N=c3\[nH]c4ccccc4n3C3CCC3)ccn2)cn1 [I-019] |
| 4.9 | 4 | 27.7 | 876 | – | – | – | CN1CCC(c2ccc3c(c2)[nH]/c(=N\C(=O)c2ccnc(-c4cnn(C)c4)c2)n3CC(C)(C)O)CC1 [I-021] |
| 61.8 | 71 | 169 | 5620 | – | – | – | CN1CCN(c2ccc3c(c2)[nH]/c(=N\C(=O)c2ccnc(-c4cnn(C)c4)c2)n3CC(C)(C)O)CC1 [I-022] |
| 7.7 | 7 | 78.2 | > 100000 | – | – | – | CC(C)(O)Cn1/c(=N/C(=O)c2ccnc(-c3cnn4ccccc34)c2)[nH]c2ccccc21 [I-023] |
| 27.9 | 28 | 113 | 7890 | – | – | – | Cc1c(-c2cc(C(=O)/N=c3\[nH]c4cc(N5CCN(C)CC5)ccc4n3CC(C)(C)O)ccn2)cnn1C [I-025] |
| 4.4 | 7 | 34.5 | 1150 | – | – | – | CC(=O)N1CCC(c2ccc3c(c2)[nH]/c(=N\C(=O)c2ccnc(-c4cnn(C)c4C)c2)n3CC(C)(C)O)CC1 [I-026] |
| 2.4 | 1 | 4.2 | 591 | – | – | – | COc1ccncc1-c1cc(C(=O)/N=c2\[nH]c3cc(C4CCN(C)CC4)ccc3n2CC(C)(C)O)ccn1 [I-028] |
| 72.4 | 58 | 190 | 14800 | – | – | – | CN(C)Cc1ccc2c(c1)[nH]/c(=N\C(=O)c1ccnc(-c3cnn(C)c3)c1)n2CC(C)(C)O [I-029] |

| IC50 ([1]; 100 μM ATP) [nM] | IC50 [2] [nM] | IC50 [3, 4] [nM] | IC50 (EGFR wt; [5]) [nM] | IC50 [3, 6] [nM] | IC50 (EGFR wt; [7]) [nM] | IC50 ([1]; 5 μM ATP) [nM] | SMILES |
| --- | --- | --- | --- | --- | --- | --- | --- |
| 3.4 | 6 | 25.5 | 1960 | – | – | – | CN1CCC(c2ccc3c(c2)[nH]/c(=N\C(=O)c2ccnc(-n4cnc5cccc(F)c54)c2)n3CC(C)(C)O)CC1 [I-030] |
| 1.2 | 1 | – | – | – | – | – | COc1ccncc1-c1cc(C(=O)/N=c2\[nH]c3cc(C4CCN(C(C)=O)CC4)ccc3n2CC(C)(C)O)ccn1 [I-031] |
| 0.6 | 1 | 3 | 366 | – | – | – | CN1CCC(c2ccc3c(c2)[nH]/c(=N\C(=O)c2ccnc(-c4cnn5cccnc45)c2)n3CC(C)(C)O)CC1 [I-032] |
| 8.6 | 9 | 91.6 | 9510 | – | – | – | Cc1ccc2c(c1)[nH]/c(=N\C(=O)c1ccnc(-c3cnn(C)c3)c1)n2CC(C)(C)O [I-033] |
| 22.8 | 21 | 196 | 3950 | – | – | – | Cc1ccc2[nH]/c(=N\C(=O)c3ccnc(-c4cnn(C)c4)c3)n(CC(C)(C)O)c2c1 [I-034] |
| 5.6 | 79 | 79.3 | 6670 | – | – | – | CN1CCC(c2ccc3c(c2)[nH]/c(=N\C(=O)c2ccnc(-c4cnn(C)c4)c2)n3CC(C)(C)O)CC1=O (stereo not shown) [I-035] |
| 4 | 3 | 40.1 | 1250 | 1.6 | 407 | – | Cn1cc(-c2cc(C(=O)/N=c3\[nH]c4ccccc4n3[C@H]3CC[C@H](O)CC3)ccn2)cn1 [I-036] |
| 14.2 | 15 | 171 | > 100000 | – | – | – | Cn1cc(-c2cc(C(=O)/N=c3\[nH]c4ccccc4n3CCC(C)(C)O)ccn2)cn1 [I-037] |
| 15.8 | 27 | 234 | 40800 | – | – | – | Cn1cc(-c2cc(C(=O)/N=c3\[nH]c4ccccc4n3CC(C)(C)CO)ccn2)cn1 [I-038] |
| 36 | 9 | 508 | > 100000 | – | – | – | CC(C)(O)Cn1/c(=N/C(=O)c2ccnc(-n3cnc4ccccc43)c2)[nH]c2ccccc21 [I-039] |
| 6.6 | 6 | 189 | > 100000 | – | – | – | CC(C)(O)Cn1/c(=N/C(=O)c2ccnc(-c3cccnc3)c2)[nH]c2cc(C3CCCOC3)ccc21 (stereo not shown) [I-052] |
| 8.7 | 2 | 94.1 | 5740 | – | – | – | Cn1cc(-c2cc(C(=O)/N=c3\[nH]c4cc(C5CCCOC5)ccc4n3CC(C)(C)O)ccn2)cn1 (stereo not shown) [I-053] |
| 4.1 | 7 | 104 | 79700 | – | – | – | COC(=O)Cc1ccc2c(c1)[nH]/c(=N\C(=O)c1ccnc(-c3cccnc3)c1)n2CC(C)(C)O [I-054] |
| 7.3 | 10 | 86.9 | 26300 | – | – | – | COC(=O)Cc1ccc2c(c1)[nH]/c(=N\C(=O)c1ccnc(-c3cnn(C)c3)c1)n2CC(C)(C)O [I-055] |
| – | 2 | 31.6 | > 100000 | 0.8 | 164 | 0.2 | Cn1cc(-c2cc(C(=O)/N=c3\[nH]c4ccccc4n3[C@H]3CC[C@@H](O)CC3)cc(C#N)n2)cn1 [I-136] |
| – | 3 | 104 | > 100000 | 1.9 | 2180 | 0.4 | Cc1cc(C(=O)/N=c2\[nH]c3ccccc3n2[C@H]2CC[C@@H](O)CC2)cc(-c2cnn(C)c2)n1 [I-143] |
| – | 2 | – | – | 0.4 | 25.8 | 0.1 | CC(=O)N1CCC(c2ccc3c(c2)[nH]/c(=N\C(=O)c2ccnc(-c4cnn(C)c4)c2)n3[C@H]2CC[C@@H](O)CC2)CC1 [I-219] |
| – | 59 | – | – | 32.7 | 2860 | 2 | Cn1cc(-c2cc(C(=O)/N=c3\[nH]c4ccccc4n3C3CCC[S+]([O-])C3)ccn2)cn1 (stereo not shown) [I-220] |
| – | 5 | – | – | 2 | 2050 | 0.4 | Cc1cc(C(=O)/N=c2\[nH]c3ccc(CN4CCOCC4)cc3n2C2CCCCC2)cc(-c2cnn(C)c2)n1 [I-221] |
| – | 5 | – | – | 0.6 | 318 | 0.2 | Cc1cc(C(=O)/N=c2\[nH]c3ccc(CN4CCN(C)CC4)cc3n2[C@H]2CC[C@@H](O)CC2)cc(-c2cnn(C)c2)n1 [I-222] |
